The source of these data is patent publication US12227488B2, “Small molecule degraders of Helios and methods of use” (DANA-FARBER CANCER INSTITUTE, INC., priority 2018, dated 2025).

The target of test [1] is T1, CRBN and Helios (IKZF2) (Homo sapiens, UniProt Q96SW2+Q9UKS7).
T1 construct: His (N); Strep (N)
Kind of test: TR-FRET dimerization assay (CRBN-IKZF2 ternary complex formation). The conditions noted are these: n=1. The test is classed as binding. An outline of the steps:
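Compound-induced IKZF2 recruitment to CRBN was read as the 520/490 nm TR-FRET ratio after 15 min at rt. The mix held biotinylated IKZF2, BODIPY-labeled CRBN bound to DDB1 lacking the BPB propeller, tracer Tb-streptavidin and compound titrations; n=1, from ≥3 technical replicates per well.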

The target of test [2] is T2, IKZF1 (Homo sapiens, UniProt Q13422).
T2 construct: expressed in transfected cells; host or cells: Flp-In 293
T2 sequence (Q13422 83-213 isoform Q13422-7 limits assumed): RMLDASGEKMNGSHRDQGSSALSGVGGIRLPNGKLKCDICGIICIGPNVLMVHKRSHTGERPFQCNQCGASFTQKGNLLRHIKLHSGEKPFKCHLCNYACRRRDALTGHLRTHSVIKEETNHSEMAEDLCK
T2 sequence (Q96SW2 whole entry partner): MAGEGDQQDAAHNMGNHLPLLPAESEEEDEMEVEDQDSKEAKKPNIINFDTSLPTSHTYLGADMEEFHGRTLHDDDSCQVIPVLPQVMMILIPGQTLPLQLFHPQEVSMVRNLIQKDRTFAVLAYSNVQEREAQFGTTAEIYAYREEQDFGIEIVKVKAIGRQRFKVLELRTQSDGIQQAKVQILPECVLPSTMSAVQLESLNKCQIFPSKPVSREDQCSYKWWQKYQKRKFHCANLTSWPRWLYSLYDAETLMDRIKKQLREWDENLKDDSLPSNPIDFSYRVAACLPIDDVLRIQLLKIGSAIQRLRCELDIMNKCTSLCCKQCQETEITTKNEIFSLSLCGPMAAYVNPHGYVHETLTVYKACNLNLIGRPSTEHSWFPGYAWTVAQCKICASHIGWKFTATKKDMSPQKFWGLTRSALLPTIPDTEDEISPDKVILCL
T2 sequence (Q16531 2-1140 partner limits assumed): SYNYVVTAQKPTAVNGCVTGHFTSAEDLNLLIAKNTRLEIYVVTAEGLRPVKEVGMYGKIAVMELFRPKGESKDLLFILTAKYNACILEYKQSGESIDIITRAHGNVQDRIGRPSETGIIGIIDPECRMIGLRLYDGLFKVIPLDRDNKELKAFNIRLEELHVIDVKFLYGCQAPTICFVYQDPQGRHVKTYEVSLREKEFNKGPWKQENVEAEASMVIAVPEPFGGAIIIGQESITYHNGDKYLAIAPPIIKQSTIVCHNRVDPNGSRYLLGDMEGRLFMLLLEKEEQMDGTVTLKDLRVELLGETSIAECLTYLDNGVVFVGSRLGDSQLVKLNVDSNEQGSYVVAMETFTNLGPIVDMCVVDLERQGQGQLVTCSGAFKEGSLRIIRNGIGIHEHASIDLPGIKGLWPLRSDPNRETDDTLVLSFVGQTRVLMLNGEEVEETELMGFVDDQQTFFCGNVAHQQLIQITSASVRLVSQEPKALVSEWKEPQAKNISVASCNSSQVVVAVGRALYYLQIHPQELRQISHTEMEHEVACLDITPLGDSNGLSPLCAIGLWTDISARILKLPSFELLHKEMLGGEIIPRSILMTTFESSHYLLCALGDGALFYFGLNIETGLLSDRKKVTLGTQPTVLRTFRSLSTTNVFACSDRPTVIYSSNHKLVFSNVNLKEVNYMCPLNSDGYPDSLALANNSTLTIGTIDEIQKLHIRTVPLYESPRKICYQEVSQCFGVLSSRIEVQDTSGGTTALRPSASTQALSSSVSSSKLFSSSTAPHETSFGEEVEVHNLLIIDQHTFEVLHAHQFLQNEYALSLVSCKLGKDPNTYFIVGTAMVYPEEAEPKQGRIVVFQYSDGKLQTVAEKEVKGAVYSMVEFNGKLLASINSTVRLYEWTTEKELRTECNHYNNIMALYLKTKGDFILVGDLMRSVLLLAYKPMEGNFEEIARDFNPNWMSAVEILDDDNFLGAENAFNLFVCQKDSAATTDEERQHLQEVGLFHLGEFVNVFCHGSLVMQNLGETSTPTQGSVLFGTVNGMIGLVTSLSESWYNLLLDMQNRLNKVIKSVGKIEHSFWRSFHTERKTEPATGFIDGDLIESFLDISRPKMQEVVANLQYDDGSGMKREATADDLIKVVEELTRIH
The test is described as follows: Cellular degradation assay, eGFP-IKZF1Δ fusion with mCherry reporter in Flp-In 293 cells. The test is classed as cell-based. The conditions noted are these: 5 h incubation, n=1. An outline of the steps: (§1)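 DC50,5 h derived by variable-slope nonlinear fit of the per-well ratio of GFP-positive to mCherry-positive cells, imaged after 5 h compound exposure at 0.5% DMSO.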

Test [3] deals with IKZF2. The test is described as follows: Cellular degradation assay, eGFP-IKZF2Δ fusion with mCherry reporter in Flp-In 293 cells. The test is classed as cell-based. As to conditions: 5 h incubation, n=1. In a few lines: as §1
The target of test [4] is T3, SALL4 ZNF1-2 (Homo sapiens, UniProt Q96SW2+Q9UJQ4).
T3 construct: IKZF1Δ, IKZF2Δ, GSPT1 and SALL4 ZnF1-2 were subcloned; expressed in transfected cells; host or cells: Flp-In 293
T3 sequence (Q9UJQ4 378-438 limits assumed): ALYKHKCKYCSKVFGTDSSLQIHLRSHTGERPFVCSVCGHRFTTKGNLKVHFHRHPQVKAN
T3 sequence (Q96SW2 whole entry): as the sequence (Q96SW2 whole entry partner) above
T3 sequence (Q16531 whole entry partner): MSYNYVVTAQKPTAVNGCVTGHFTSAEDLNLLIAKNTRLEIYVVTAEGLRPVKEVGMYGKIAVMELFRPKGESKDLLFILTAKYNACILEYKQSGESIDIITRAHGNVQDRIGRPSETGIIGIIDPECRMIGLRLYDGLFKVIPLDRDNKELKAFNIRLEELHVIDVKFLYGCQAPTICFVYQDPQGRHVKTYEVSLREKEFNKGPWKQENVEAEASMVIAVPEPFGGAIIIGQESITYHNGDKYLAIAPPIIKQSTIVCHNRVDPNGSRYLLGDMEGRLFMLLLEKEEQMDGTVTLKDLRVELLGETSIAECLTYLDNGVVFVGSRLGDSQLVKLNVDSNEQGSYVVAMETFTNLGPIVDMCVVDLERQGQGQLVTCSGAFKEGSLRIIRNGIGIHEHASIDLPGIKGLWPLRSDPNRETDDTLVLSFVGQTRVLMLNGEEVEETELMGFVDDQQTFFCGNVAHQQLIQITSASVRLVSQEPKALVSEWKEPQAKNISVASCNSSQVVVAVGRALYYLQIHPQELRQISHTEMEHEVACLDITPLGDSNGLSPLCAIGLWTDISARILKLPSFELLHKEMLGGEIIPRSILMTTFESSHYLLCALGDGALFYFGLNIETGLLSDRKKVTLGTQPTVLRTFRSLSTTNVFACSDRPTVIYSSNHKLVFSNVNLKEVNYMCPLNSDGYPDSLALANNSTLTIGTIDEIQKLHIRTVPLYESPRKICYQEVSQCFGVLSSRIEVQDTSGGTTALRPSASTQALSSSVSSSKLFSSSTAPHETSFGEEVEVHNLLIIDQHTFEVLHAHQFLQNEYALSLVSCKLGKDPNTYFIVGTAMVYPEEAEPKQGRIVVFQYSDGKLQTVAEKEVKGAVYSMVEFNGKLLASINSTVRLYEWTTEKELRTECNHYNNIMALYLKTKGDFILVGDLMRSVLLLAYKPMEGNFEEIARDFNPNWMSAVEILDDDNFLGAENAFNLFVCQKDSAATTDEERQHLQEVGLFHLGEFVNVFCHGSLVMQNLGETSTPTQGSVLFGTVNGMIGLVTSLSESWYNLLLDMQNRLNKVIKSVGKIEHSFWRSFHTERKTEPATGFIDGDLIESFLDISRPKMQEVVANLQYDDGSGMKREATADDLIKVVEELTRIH
The test is described as follows: Cellular degradation assay, eGFP-SALL4 ZnF1-2 fusion with mCherry reporter in Flp-In 293 cells. The class given is cell-based. The conditions noted are these: 5 h incubation, n=1. An outline of the steps:
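Read-out is the ratio of GFP-positive to mCherry-positive cells per well, imaged at 488 and 561 nm right after 5-hour compound exposure (normalised to 0.5% DMSO). Cells: Flp-In 293 stably carrying eGFP-P2A-mCherry construct fused to SALL4 ZnF1-2.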

Test [5] addresses GSPT1 (Homo sapiens, UniProt P15170+Q96SW2). Kind of test: Cellular degradation assay, eGFP-GSPT1 fusion with mCherry reporter in Flp-In 293 cells. The conditions noted are these: 5 h incubation, n=1. The test is classed as cell-based. Also on record: expressed in transfected cells; host or cells: Flp-In 293. In a few lines:
as §1

Setting [6] is: compound concentration 6.6667E−05.
Where [7] appears, read: compound concentration 6.6667E−06.
The mark [8] stands for this setting: compound concentration 6.6667E−07 (667 nM).
The mark [9] stands for this setting: compound concentration 2.00E−05.
Setting [10] is: compound concentration 2.00E−06.
The mark [11] stands for this setting: compound concentration 2.00E−07.

GSPT1, sequence (P15170 whole entry, the tested form may be a part): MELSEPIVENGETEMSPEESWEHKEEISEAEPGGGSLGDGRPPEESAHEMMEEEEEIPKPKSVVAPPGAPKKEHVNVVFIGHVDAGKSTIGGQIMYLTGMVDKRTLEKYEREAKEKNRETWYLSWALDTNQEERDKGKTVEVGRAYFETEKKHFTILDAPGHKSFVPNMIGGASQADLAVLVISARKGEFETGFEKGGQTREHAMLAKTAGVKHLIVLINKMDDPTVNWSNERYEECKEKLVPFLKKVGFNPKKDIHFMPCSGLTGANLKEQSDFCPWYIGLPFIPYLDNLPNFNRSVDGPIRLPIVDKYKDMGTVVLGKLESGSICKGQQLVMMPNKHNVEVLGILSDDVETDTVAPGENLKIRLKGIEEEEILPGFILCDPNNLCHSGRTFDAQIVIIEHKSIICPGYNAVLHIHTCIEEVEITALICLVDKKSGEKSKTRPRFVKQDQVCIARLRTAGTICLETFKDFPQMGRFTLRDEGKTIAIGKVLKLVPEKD
GSPT1, sequence (Q96SW2 whole entry, the tested form may be a part): as the sequence (Q96SW2 whole entry partner) above
GSPT1, sequence (Q16531 whole entry partner, the tested form may be a part): as the sequence (Q16531 whole entry partner) above
T1 sequence (Q96SW2 whole entry): as the sequence (Q96SW2 whole entry partner) above
T1 sequence (Q9UKS7 whole entry): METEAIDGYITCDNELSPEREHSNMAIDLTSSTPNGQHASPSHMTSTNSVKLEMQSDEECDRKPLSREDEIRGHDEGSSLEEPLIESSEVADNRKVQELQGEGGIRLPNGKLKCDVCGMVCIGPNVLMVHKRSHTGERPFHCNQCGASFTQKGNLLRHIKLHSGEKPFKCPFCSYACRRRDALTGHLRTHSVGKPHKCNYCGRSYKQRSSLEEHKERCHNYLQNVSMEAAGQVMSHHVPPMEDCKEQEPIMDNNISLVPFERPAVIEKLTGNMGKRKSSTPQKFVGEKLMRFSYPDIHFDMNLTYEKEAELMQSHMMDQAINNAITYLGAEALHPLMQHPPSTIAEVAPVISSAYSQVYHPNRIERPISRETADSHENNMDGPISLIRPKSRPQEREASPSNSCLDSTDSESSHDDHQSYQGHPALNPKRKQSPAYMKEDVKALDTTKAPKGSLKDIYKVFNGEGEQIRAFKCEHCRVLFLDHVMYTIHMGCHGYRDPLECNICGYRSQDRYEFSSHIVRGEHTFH

Regarding `CN(C)C(=O)c1ccc(NC2=CC(=O)N(C3CCC(=O)NC3=O)C2=O)cc1` (stereo not drawn) [Compound 34, 4-((1-(2,6-dioxopiperidin-3-yl)-2,5-dioxo-2,5-dihydro-1H-pyrrol-3-yl)amino)-N,N-dimethylbenzamide], the “TR-FRET-IKZF2 (Normalized to CC-885)” value in test [1] (setting [6]) amounted to 0.077; in test [1] (setting [7]) it was 0.064; in test [1] (setting [8]), 0.059. Further, the “IKZF1 GFP/RFP Relative Abundance” value in test [2] (setting [9]) turned out to be 1.042; in test [2] (setting [10]) it was 0.984; in test [2] (setting [11]), 0.904. Moreover, the figures for the “IKZF2 GFP/RFP Relative Abundance” value in test [3] (setting [9]), in test [3] (setting [10]) and in test [3] (setting [11]) were 0.981, 1.018 and 0.950, respectively. The “SALL4 ZNF1-2 GFP/RFP Relative Abundance” value in test [4] (setting [9]) is listed as 0.940; in test [4] (setting [10]) it was 0.944; in test [4] (setting [11]), 0.943. The “GSPT1 GFP/RFP Relative Abundance” value in test [5] (setting [9]) turned out to be 0.867; in test [5] (setting [10]), 0.821; in test [5] (setting [11]), 0.878.

Take `CN(C)C(=O)Cc1cccc(NC2=CC(=O)N(C3CCC(=O)NC3=O)C2=O)c1` (stereo not drawn) [Compound 35, 2-(3-((1-(2,6-dioxopiperidin-3-yl)-2,5-dioxo-2,5-dihydro-1H-pyrrol-3-yl)amino)phenyl)-N,N-dimethylacetamide]: the “TR-FRET-IKZF2 (Normalized to CC-885)” value in test [1] (setting [6]) worked out at 0.520; in test [1] (setting [7]) it was 0.447; in test [1] (setting [8]), 0.402. Moreover, the “IKZF1 GFP/RFP Relative Abundance” value is recorded as 0.154 in test [2] (setting [9]), 0.181 in test [2] (setting [10]) and 0.182 in test [2] (setting [11]). The “IKZF2 GFP/RFP Relative Abundance” value in test [3] (setting [9]) is given as 0.667; in test [3] (setting [10]), 0.709; in test [3] (setting [11]), 0.806. Besides, the “SALL4 ZNF1-2 GFP/RFP Relative Abundance” value in test [4] (setting [9]) was 0.928; in test [4] (setting [10]), 0.903; in test [4] (setting [11]), 0.888. Further, the “GSPT1 GFP/RFP Relative Abundance” value in test [5] (setting [9]) was found to be 0.975; in test [5] (setting [10]) it was 1.074; in test [5] (setting [11]), 0.938.

For `CN(C)C(=O)Cc1ccc(NC2=CC(=O)N(C3CCC(=O)NC3=O)C2=O)cc1` (stereo not drawn) [Compound 36, 2-(4-((1-(2,6-dioxopiperidin-3-yl)-2,5-dioxo-2,5-dihydro-1H-pyrrol-3-yl)amino)phenyl)-N,N-dimethylacetamide], the “TR-FRET-IKZF2 (Normalized to CC-885)” value is 0.183 in test [1] (setting [6]), 0.148 in test [1] (setting [7]) and 0.115 in test [1] (setting [8]). Further, the “IKZF1 GFP/RFP Relative Abundance” value is on record as 0.687 in test [2] (setting [9]), 0.796 in test [2] (setting [10]) and 0.860 in test [2] (setting [11]). Also, the entries for the “IKZF2 GFP/RFP Relative Abundance” value in test [3] (setting [9]), in test [3] (setting [10]) and in test [3] (setting [11]) were 0.943, 1.027 and 1.049, respectively. Moreover, the “SALL4 ZNF1-2 GFP/RFP Relative Abundance” value worked out at 1.000 in test [4] (setting [9]), 1.033 in test [4] (setting [10]) and 0.974 in test [4] (setting [11]). Also, the “GSPT1 GFP/RFP Relative Abundance” value was determined as 1.112 in test [5] (setting [9]), 1.009 in test [5] (setting [10]) and 1.006 in test [5] (setting [11]).

Turning to `O=C1CCC(N2C(=O)C=C(Nc3ccc4cc[nH]c4c3)C2=O)C(=O)N1` (stereo not drawn) [Compound 37, 3-(3-((1H-indol-6-yl)amino)-2,5-dioxo-2,5-dihydro-1H-pyrrol-1-yl)piperidine-2,6-dione], the “TR-FRET-IKZF2 (Normalized to CC-885)” value is 0.620 in test [1] (setting [6]), 0.422 in test [1] (setting [7]) and 0.355 in test [1] (setting [8]). Moreover, the figures for the “IKZF1 GFP/RFP Relative Abundance” value in test [2] (setting [9]), in test [2] (setting [10]) and in test [2] (setting [11]) were 0.315, 0.349 and 0.344, respectively. Also, the “IKZF2 GFP/RFP Relative Abundance” value worked out at 0.938 in test [3] (setting [9]), 1.004 in test [3] (setting [10]) and 0.988 in test [3] (setting [11]). The “SALL4 ZNF1-2 GFP/RFP Relative Abundance” value in test [4] (setting [9]) is on record as 0.939; in test [4] (setting [10]) it was 0.865; in test [4] (setting [11]), 0.891. In addition, the “GSPT1 GFP/RFP Relative Abundance” value in test [5] (setting [9]) worked out at 0.787; in test [5] (setting [10]) it was 1.111; in test [5] (setting [11]), 1.010.

As to `O=C1CCC(N2C(=O)C=C(Nc3ccc(-c4ccccc4)cc3)C2=O)C(=O)N1` (stereo not drawn) [Compound 38, 3-(3-([1,1′-biphenyl]-4-ylamino)-2,5-dioxo-2,5-dihydro-1H-pyrrol-1-yl)piperidine-2,6-dione], the results for the “TR-FRET-IKZF2 (Normalized to CC-885)” value in test [1] (setting [6]), in test [1] (setting [7]) and in test [1] (setting [8]) were 0.328, 0.266 and 0.210, respectively. Moreover, the “IKZF1 GFP/RFP Relative Abundance” value in test [2] (setting [9]) was 0.728; in test [2] (setting [10]), 0.663; in test [2] (setting [11]) it was 0.621. Besides, the “IKZF2 GFP/RFP Relative Abundance” value was found to be 0.885 in test [3] (setting [9]), 1.002 in test [3] (setting [10]) and 0.977 in test [3] (setting [11]). Besides, the “SALL4 ZNF1-2 GFP/RFP Relative Abundance” value in test [4] (setting [9]) came out at 1.005; in test [4] (setting [10]), 0.887; in test [4] (setting [11]) it was 0.742. For the same compound, the entries for the “GSPT1 GFP/RFP Relative Abundance” value in test [5] (setting [9]), in test [5] (setting [10]) and in test [5] (setting [11]) were 1.174, 1.216 and 0.870, respectively.

For the compound `O=C1CCC(N2C(=O)C=C(Nc3ccc(Cc4ccccc4)cc3)C2=O)C(=O)N1` (stereo not drawn) [Compound 39, 3-(3-((4-benzylphenyl)amino)-2,5-dioxo-2,5-dihydro-1H-pyrrol-1-yl)piperidine-2,6-dione], the “TR-FRET-IKZF2 (Normalized to CC-885)” value in test [1] (setting [6]) came out at 0.271; in test [1] (setting [7]) it was 0.230; in test [1] (setting [8]), 0.174. In addition, the “IKZF1 GFP/RFP Relative Abundance” value is given as 0.705 in test [2] (setting [9]), 0.691 in test [2] (setting [10]) and 0.677 in test [2] (setting [11]). The “IKZF2 GFP/RFP Relative Abundance” value in test [3] (setting [9]) was 1.070; in test [3] (setting [10]) it was 1.008; in test [3] (setting [11]), 1.047. The “SALL4 ZNF1-2 GFP/RFP Relative Abundance” value in test [4] (setting [9]) was 1.110; in test [4] (setting [10]) it was 1.006; in test [4] (setting [11]), 1.043. Further, the “GSPT1 GFP/RFP Relative Abundance” value came out at 0.743 in test [5] (setting [9]), 0.813 in test [5] (setting [10]) and 0.830 in test [5] (setting [11]).

Consider `Cc1ccc(NC(=O)NCCNC2=CC(=O)N(C3CCC(=O)NC3=O)C2=O)cc1Cl` (stereo not drawn) [Compound 41, 1-(3-chloro-4-methylphenyl)-3-(2-((1-(2,6-dioxopiperidin-3-yl)-2,5-dioxo-2,5-dihydro-1H-pyrrol-3-yl)amino)ethyl)urea], for which the “TR-FRET-IKZF2 (Normalized to CC-885)” value in test [1] (setting [6]) is given as 0.170; in test [1] (setting [7]), 0.126; in test [1] (setting [8]) it was 0.104. Further, the “IKZF1 GFP/RFP Relative Abundance” value in test [2] (setting [9]) came to 0.638; in test [2] (setting [10]), 0.909; in test [2] (setting [11]), 1.003. The “IKZF2 GFP/RFP Relative Abundance” value in test [3] (setting [9]) was 0.969; in test [3] (setting [10]), 1.027; in test [3] (setting [11]) it was 1.040. For the same compound, the “SALL4 ZNF1-2 GFP/RFP Relative Abundance” value worked out at 1.020 in test [4] (setting [9]), 0.994 in test [4] (setting [10]) and 1.004 in test [4] (setting [11]). The “GSPT1 GFP/RFP Relative Abundance” value in test [5] (setting [9]) was found to be 0.038; in test [5] (setting [10]), 0.062; in test [5] (setting [11]) it was 0.077.

`Cc1ccc(NC(=O)Nc2ccc(NC3=CC(=O)N(C4CCC(=O)NC4=O)C3=O)cc2)cc1Cl` (stereo not drawn) [Compound 42, 1-(3-chloro-4-methylphenyl)-3-(4-((1-(2,6-dioxopiperidin-3-yl)-2,5-dioxo-2,5-dihydro-1H-pyrrol-3-yl)amino)phenyl)urea]: the “TR-FRET-IKZF2 (Normalized to CC-885)” value in test [1] (setting [6]) amounted to 0.407; in test [1] (setting [7]), 0.318; in test [1] (setting [8]), 0.209. Moreover, the “IKZF1 GFP/RFP Relative Abundance” value is on record as 0.775 in test [2] (setting [9]), 0.536 in test [2] (setting [10]) and 0.577 in test [2] (setting [11]). Further, the figures for the “IKZF2 GFP/RFP Relative Abundance” value in test [3] (setting [9]), in test [3] (setting [10]) and in test [3] (setting [11]) were 1.056, 1.050 and 0.999, respectively. For the same compound, the “SALL4 ZNF1-2 GFP/RFP Relative Abundance” value in test [4] (setting [9]) came to 1.122; in test [4] (setting [10]) it was 0.997; in test [4] (setting [11]), 1.018. Also, the “GSPT1 GFP/RFP Relative Abundance” value in test [5] (setting [9]) was found to be 0.118; in test [5] (setting [10]) it was 0.182; in test [5] (setting [11]), 0.215.
